For the experiment, the system named is adult CMs of OSKM transgenic mice. As to the kind of experiment: doxycycline injection into OSKM transgenic mice, adult CMs isolated after two days. It counts as in vivo. The following applies: two days after doxycycline treatment. How it is done:
Reverse transcription were completed following the protocol of SuperScript III Reverse-Transcriptase kit (Life Technology). SYBR Green Real-Time PCR master mixes were used to quantify each gene expression, and GAPDH were performed for normalization.
Adult ventricular CMs were isolated from male mice on a Langendorff apparatus. The hearts were removed from the anaesthetized mice after heparinization for 10 mins, and then were cannulated for retrograde perfusion with Ca^2+-free Tyrode solution (NaCl 120.4 mmol/L, KCl 14.7 mmol/L, KH2PO4 0.6 mmol/L, Na2HPO4 0.6 mmol/L, MgSO4 1.2 mmol/L, HEPES 1.2 mmol/L, NaHCO3 4.6 mmol/L, Taurine 30 mmol/L, BDM 10 mmol/L, Glucose 5.5 mmol/L).
After 3-minutes of perfusion, the solution mixed with Ca^2+-free Tyrode solution supplemented with collagenase B (0.4 mg/g body weight, Roche), collagenase D (0.3 mg/g body weight, Roche) and protease type XIV (0.05 mg/g body weight, Sigma-Aldrich) were used to digest the hearts. After digestion, the ventricles were cut from the cannula and teased into small pieces in the digestion solution neutralized by the Ca^2+-free Tyrode solution containing 10% FBS. Adult CMs were dissociated from the digested tissues by gentle pipetting and collected after removing the un-digested tissues by filtering through a nylon mesh of 250 μm pore size. […]

Each structure is given as a SMILES string.

Consider `C[C@H]1c2cccc(O)c2C(=O)C2=C(O)[C@]3(O)C(=O)C(C(N)=O)=C(O)[C@@H](N(C)C)[C@@H]3[C@@H](O)[C@@H]21` [doxycycline], for which the “H3P+ population of adult CMs relative to control” value came out at 2 ×.

Source of the values: patent publication US10398786B2, “Therapeutic gene cocktail for heart regeneration” (Academia Sinica, priority 2015, dated 2019).
